Experimental data published in US20250367290A1, “ENGINEERED STEM CELLS AND USES THEREOF” (Umoja Biopharma, Inc., priority 2022, published 2025).

How the values were obtained:
[1] = system: Burkitt's lymphoma tumor cells; assay: RACR-iCIL co-culture cytotoxicity with or without rituximab; assay type: cell-based; settings: added to RACR-iCILs
Procedure: (§1) In a similar experiment, RACR-iCILs were cocultured with Burkitt's lymphoma tumor cells or non-Hodgkin's lymphoma tumor cells at a ratio of 2.5:1, 10:1, or 0:1, and stimulated with and without rapamycin and/or cytokines. Additional groups included rituximab. Cytotoxicity was determined by imaging cells across 40 hours, as described in Example 6.

[2] = system: non-Hodgkin's lymphoma tumor cells; assay: as above; assay type: cell-based; settings: added to RACR-iCILs
Procedure: as §1

wildtype iPSCs = assay: iPSC confluency after four days of rapamycin; assay type: cell-based, human; settings: four days of treatment
Procedure: (§2) RACR requires rapamycin for activation; however, rapamycin inhibits cell growth. To generate rapamycin resistant cells, the FKBP12 gene was knocked-out. […] In the absence of FKBP12, rapamycin cannot interact with the mTOR complex and thus loses its inhibitory capacity. The efficiency of the knockout was determined by Sanger sequencing. Con1, Con2, or Con3 indicate different electroporation conditions for CRISPR-Cas9 based editing resulting in differing levels of knockout. Phase-contrast images reveal normal iPSC morphology in both wild type and FKBP12 KO cells, FIG. 16B, right panel. The confluency of wildtype iPSCs after four days of treatment with varying doses of rapamycin with inhibition of growth at 1 nM rapamycin or higher is shown in FIG. 16C. […] The ability of clonal FKBP12 KO iPSCs to differentiate to hematopoietic progenitors (HPs) in the presence of rapamycin is shown in FIG. 16E.

FKBP12 KO iPSCs = assay: iPSC confluency during four days of rapamycin; assay type: cell-based, human; settings: four days of treatment
Procedure: as §2

[3] = system: hematopoietic progenitors (CD34+/CD43+/CD45+); assay: HP differentiation phase: rapamycin requirement; assay type: cell-based
Procedure: RACR iPSCs (edited B2M-EF1a-RACR and knocked out for FKBP12) were cultured in media, as described in Example 9. At day 0-2, embryoid bodies (EBs) were generated from a single cell suspension of iPSCs in STEMdiff APEL 2 Medium (STEMCELL Technologies) supplemented with BMP4, FGF2, VEGF, Y27632, and +/− rapalog (RL; AP21967) or +/− rapamycin (RM). EBs were formed using plates comprising aggregates of microwells (e.g. Aggrewell™ 800 plates) at 500 iPSC/EB or 1000 iPSC/EB, as described in Example 9 and shown in FIG. 34. As shown in FIG. 35A-B, higher iPSC confluency at the start of differentiation contributes to a higher HP yield. Further, a range of 200-250 iPSC/EBs seeded in microwells is optimal to achieve the highest HP yield on day 15 (FIG. 35C).
The differentiating EBs were moved to non-tissue culture treated 6-well plates (Corning) at day 6 and fresh HP Medium was added. Every 3 days from days 3-15, half of the media was replaced with HP Medium.

iCIL cells = assay: iCIL differentiation and expansion in bioreactors; assay type: cell-based; settings: iCIL differentiation phase
Procedure: At Day 15 of culture, the differentiated cells were continued in culture for up to 40 days for iCIL cell generation. At Day 21, the GRex bioreactor was seeded with the cells, as described in Example 13. […] Lower seeding densities on days 15 and 24 contributed to increased iCIL yields, while higher seeding densities contributed to higher iCIL yields on Days 30-33 (FIG. 39B). In another experiment, this step was repeated with two different stirred-tank bioreactors at various stages in the protocol.
Thus, Aim V was used as the base medium for the iCIL differentiation phase. Components and supplements in the Aim V medium used during the iCIL differentiation phase were tested for their effect on iCIL yield and cytotoxicity.

[4] = system: PSMA-positive human prostate cancer cells; settings: DUPA-(99m) Tc; cited from earlier work
TagCAR-RACR iCIL cells = assay: RACR-driven differentiation and expansion of iCIL cells from Day 26 lymphoid progenitors; assay type: cell-based, human; settings: AP21967 100 nM, no other cytokine
Text: The RACR-system was utilized for differentiation to iPSC-derived CIL cells (iCIL cells). The iPSC cell line ATCC-BXS0117 (ATCC #ACS-1031) was differentiated into lymphoid progenitors through the STEMdiff NK cell kit (STEMCELL® Technologies, #100-0170) as described in Example 2 above, up until the Day 26 timepoint. The percentage of cells containing common lymphoid progenitors (CD45+/CD5+/CD7+), CIL precursors (CD45+/CD5−/CD7+), and early CIL cells (CD45+/CD5−/CD7+/CD56+) is seen in FIG. 3D with ˜50% of the cells presenting as CIL precursors and ˜25% of total cells presenting as early CIL cells. In this study, Day 26 cells were pelleted and placed in a CIL expansion media at 2×10^6 cells/mL containing (IL-2, IL-15, IL-21, IL-18, IL-7 in complete RPMI media: RPMI1640, 10% FBS, 1× Pen-Strep, and 1× Glutamax). […]
At Day 27, the cells were transduced with either VSV-G lentivirus with the payload of Tag (anti-FITC) CAR-P2A-FRB-P2A-RACR at an MOI 10 with 10 µg/mL of protamine sulfate or treated with 10 μg/mL or protamine sulfate alone (Mock). […] An aliquot of cells was collected weekly, counted on the Vicell Blu automated cell counter, and stained for CD16 clone 3G8, CD56 clone HCD56, CD45 clone 2D1, CD5 clone L17F12, CD7 clone CD7-6B7 and anti-FITC CAR (TagCAR) detection through FITC-AF647.

RACR-CAR+ cells = assay: Differentiation of RACR-transduced CLP into CIL cells with or without common gamma chain cytokines; assay type: cell-based, human
RACR-iCILs = assay: Proliferation of D47 RACR-iCILs; assay type: cell-based; settings: rapalog 100 nM
Procedure: RACR-iCILs were generated similar to as described in FIG. 18A and FIG. 18B except without SCF and TPO included in the HP medium as described in Example 9 and FIG. 17A. Data shown are from two BE-RACR iPSC clones. At D40 RACR-iCILs were incubated for one week in a maturation medium containing IL-2, IL-7, IL-12, IL-15, IL-18 and activation beads (anti-CD2/NKp46). RACR-iCILs were then incubated with breast adenocarcinoma MDA-MB23 1 cells expressing a nuclear fluorescent protein at a 10:1 […] ratio in the presence of medium alone, cytokines (IL-2/IL-7/IL-15), or rapalog (100 nM). Cell mixtures were placed into an IncuCyte fluorescent microscope and imaged every 2 hours. The number of MDA-MB23 1 cells was quantified over time via a fluorescent marker and graphed as the ratio of MDA-MB23 1 cells compared to time 0 (time 0 is equal to one). […] RACR-iCILs were then collected, placed in fresh media, and then re-exposed to MDA-MB23 1 cells for a rechallenge (FIG. 19A). Proliferation of D47 RACR-iCILs was also evaluated in different cytokine treatments or rapalog (100 nM).

With “rituximab: antibody added to RACR-iCIL co-cultures with lymphoma tumor cells” the “further increase of tumor killing” value [1] was 10% and the “further increase of tumor killing” value [2] was 10%.

With `CO[C@H]1C[C@@H]2CC[C@@H](C)[C@@](O)(O2)C(=O)C(=O)N2CCCC[C@H]2C(=O)O[C@H]([C@H](C)C[C@@H]2CC[C@@H](O)[C@H](OC)C2)CC(=O)[C@H](C)/C=C(\C)[C@@H](O)[C@@H](OC)C(=O)[C@H](C)C[C@H](C)/C=C/C=C/C=C/1C` [rapamycin] the “rapamycin dose with inhibition of growth (confluency)” value (wildtype iPSCs) was no less than 1 nM, the “rapamycin doses with robust growth (confluency)” value (FKBP12 KO iPSCs) was “up to 100 nM” and the “lowest rapamycin concentration sufficient to produce comparable HP yields” value [3] was 3.1 nM. The “lowest rapamycin concentration sufficient to expand iCIL cells” value (iCIL cells) was 6.2 nM.

In the case of `O=C(O)CC[C@H](NC(=O)N[C@@H](CCC(=O)O)C(=O)O)C(=O)O` [DUPA], the Kd [4] is listed as 14 nM.

In the case of `CO[C@@H]1C[C@H](C[C@H](C)C2CC(=O)[C@@H](C)/C=C(\C)[C@@H](O)[C@@H](OC)C(=O)[C@H](C)C[C@@H](C)/C=C/C=C/C=C(\C)[C@H](c3c[nH]c4c(C)cccc34)C[C@H]3CC[C@@H](C)[C@@](O)(O3)C(=O)C(=O)N3CCCC[C@H]3C(=O)O2)CC[C@@H]1O` (some centres unmarked) [AP21967], the “iCIL expansion and differentiation” value (TagCAR-RACR iCIL cells) is reported as “sufficient to drive iCIL expansion in the absence of any other cytokine signaling”, the “percent of RACR-CAR+CD56+ cells” value (RACR-CAR+ cells; 4 nM AP21967, all media conditions, Day 40) is reported as “increase in the percent of RACR-CAR+CD56+ cells” and the “fold change in RACR-CAR+ cells” value (RACR-CAR+ cells; UM729 alone (None) media plus rapalog) is reported as “largest fold change in RACR-CAR+ cells”. For the same compound, the “total RACR-iCILs one week after stimulation” value (RACR-iCILs) was “supported RACR-iCIL growth”.
